The values below come from PubChem BioAssay (NCI).

The structures appear in SMILES notation. Values joined by “and” are separate entries in the source; they are usually repeats but may differ in a detail not shown here. Equal values may be shown once.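 Cells were grown in 96-well plates and exposed to each compound for 48 hours at five concentrations; endpoints were interpolated linearly between bracketing concentrations, or set to the highest concentration if not reached. Abbreviation: GI50, concentration required for 50% inhibition of growth. TGI denotes the concentration required for complete inhibition of growth.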

Among the test systems are 786-0 renal; ACHN renal; K-562 leukemia; NCI-H23 lung; SK-OV-3 ovarian; SN12C renal; SR leukemia; UACC-62 melanoma; RXF 393 renal; PC-3 prostate.
Holding throughout (experiment): NCI tumour cell line growth inhibition, 48 h

For the molecule `CNC(=S)NC1CCCCC1NC(=S)NC` (stereo unspecified), the TGI in the assay on 786-0 renal, in the assay with ACHN renal, in the assay on K-562 leukemia, with NCI-H23 lung, in the assay with SK-OV-3 ovarian and in the assay on SN12C renal was more than 100 µM throughout. Besides, the TGI in the assay with SR leukemia and in the assay on UACC-62 melanoma was more than 100 µM in each case.
Consider `CC(C)(C)[SiH]12(OC(C(F)(F)F)(C(F)(F)F)c3ccccc31)OC(C(F)(F)F)(C(F)(F)F)c1ccccc12`, for which the TGI in the assay with 786-0 renal was 11.1 µM; in the assay with ACHN renal it was 21.7 µM; in the assay on K-562 leukemia it was 18.2 µM; with NCI-H23 lung, 9.64 µM; in the assay on SN12C renal, 19.4 µM; with SR leukemia, 6.38 µM.
Consider `Cc1ccc(S(=O)(=O)NCC2CCCCC2=O)cc1` (stereo unspecified), for which the TGI in the assay with 786-0 renal, with K-562 leukemia, in the assay on NCI-H23 lung, in the assay on RXF 393 renal, in the assay on SK-OV-3 ovarian and in the assay with SN12C renal was more than 100 µM throughout. The molecule also displayed a TGI with UACC-62 melanoma of more than 100 µM.
As to `Cc1c2cccnc2c(C)c2c1c1cc(CO)ccc1n2C`, the GI50 is 2.17 µM with 786-0 renal; 0.937 µM in the assay with ACHN renal; 1.66 µM with K-562 leukemia; 2.31 µM with NCI-H23 lung; 2.67 µM with PC-3 prostate; 1.93 µM in the assay with RXF 393 renal. The GI50 in the assay on SK-OV-3 ovarian was 2.14 µM; with SN12C renal it was 2.08 µM; in the assay with UACC-62 melanoma it was 1.41 µM. The TGI came to 12.7 µM in the assay with 786-0 renal; 6.89 µM with ACHN renal; 20.6 µM in the assay with K-562 leukemia; 16 µM in the assay on NCI-H23 lung; 33 µM in the assay with PC-3 prostate; 5.5 µM in the assay on RXF 393 renal. Besides, the results for the TGI in the assay on SK-OV-3 ovarian, with SN12C renal and in the assay on UACC-62 melanoma were 6.95 µM, 40.3 µM and 4.56 µM, respectively.
With `CC(C)(C)OC(=O)NCC(=O)OCc1ccccc1`, the TGI in the assay with 786-0 renal, in the assay on ACHN renal, with K-562 leukemia, in the assay with NCI-H23 lung, with SK-OV-3 ovarian and with SN12C renal was more than 100 µM throughout. Besides, the TGI in the assay with UACC-62 melanoma was more than 100 µM.
Take `C/C1=C\CC[C@@]2(C)O[C@@H]2[C@H]2OC(=O)[C@@H](CN(C)C)[C@@H]2CC1`: the GI50 with 786-0 renal is 7.61 µM; with ACHN renal it was 15.6 µM; in the assay on K-562 leukemia, 2.54 µM; with NCI-H23 lung, 19.2 µM; in the assay on PC-3 prostate, 14.1 µM; with RXF 393 renal, 16.1 µM. The GI50 in the assay with SK-OV-3 ovarian is 27.6 µM; in the assay with SN12C renal, 12.8 µM; in the assay with UACC-62 melanoma, 17.7 µM. In addition, the TGI with 786-0 renal was determined as 24 µM; with ACHN renal, 31.6 µM; in the assay on K-562 leukemia, 59.1 µM; with NCI-H23 lung it was 40 µM; in the assay on PC-3 prostate, 33.7 µM; with RXF 393 renal, 50.5 µM. Moreover, the TGI in the assay on SK-OV-3 ovarian is 54 µM; in the assay with SN12C renal it was 32.4 µM; with UACC-62 melanoma it was 34.9 µM.
Turning to `Clc1ccc2c(NCCCNc3nccc(Nc4ccc(Br)cc4)n3)ccnc2c1`, the GI50 in the assay with 786-0 renal was 1.75 µM; in the assay on ACHN renal, 1.66 µM; in the assay with NCI-H23 lung it was 1.74 µM; with PC-3 prostate, 1.74 µM; with SK-OV-3 ovarian it was 1.55 µM; in the assay on SN12C renal, 1.69 µM. Besides, the GI50 in the assay with UACC-62 melanoma is 1.88 µM. For the same molecule, the TGI in the assay on 786-0 renal came out at 3.45 µM; in the assay on ACHN renal, 3.2 µM; with NCI-H23 lung it was 3.27 µM; in the assay with PC-3 prostate, 3.56 µM; in the assay with SK-OV-3 ovarian, 2.91 µM; in the assay on SN12C renal it was 3.37 µM. The TGI with UACC-62 melanoma amounted to 3.56 µM.
Take `O=S(O)CCCCSSCC(O)C(O)CSSCCCCS(=O)O` (stereo unspecified): the TGI was more than 100 µM in the assay on 786-0 renal; 68.7 µM and 90 µM in the assay with ACHN renal; 60.6 µM and > 100 µM in the assay with K-562 leukemia; 42.3 µM and > 100 µM with NCI-H23 lung; 38 µM and 89.8 µM in the assay with RXF 393 renal; more than 100 µM in the assay on SK-OV-3 ovarian. In addition, the TGI was more than 100 µM in the assay with SN12C renal; 25.6 µM and 38.2 µM with UACC-62 melanoma.
As to `C=CC1CC12C(=O)C1OC2(C)C2C(=O)c3cc4ccccc4cc3C(=O)C12` (stereo unspecified), the GI50 with 786-0 renal was 23.4 µM; in the assay with ACHN renal, 16.9 µM; with NCI-H23 lung, 25.9 µM; with PC-3 prostate it was 20.3 µM; in the assay with RXF 393 renal it was 11.1 µM; in the assay with SK-OV-3 ovarian, 48.1 µM. Further, the GI50 in the assay with SN12C renal was 27.8 µM. Moreover, the TGI in the assay on 786-0 renal was 83 µM; in the assay with ACHN renal, 42.1 µM; in the assay with NCI-H23 lung, more than 100 µM; in the assay with PC-3 prostate, more than 100 µM; in the assay on RXF 393 renal it was 38 µM; in the assay with SK-OV-3 ovarian it was more than 100 µM. The molecule further registered a TGI in the assay on SN12C renal of more than 100 µM.
For `O=C1c2ccccc2C2(Br)C(=O)c3ccccc3C12` (stereo unspecified), the TGI with 786-0 renal, in the assay on ACHN renal, in the assay on K-562 leukemia, with NCI-H23 lung, in the assay on RXF 393 renal and with SK-OV-3 ovarian was more than 100 µM in each case. Also, the TGI in the assay on SN12C renal and with UACC-62 melanoma was more than 100 µM throughout.
`COCCOc1cc(F)c2c(Nc3ccc(NC(=O)Cn4cc(C(C)C)nn4)cc3)ncnc2c1`: the GI50 in the assay with 786-0 renal was 39.1 µM; in the assay with ACHN renal it was 51.5 µM; with K-562 leukemia, 10.2 µM; in the assay with NCI-H23 lung, more than 100 µM; with PC-3 prostate, more than 100 µM; in the assay with RXF 393 renal, 10.2 µM. Moreover, the values for the GI50 in the assay with SN12C renal and in the assay with UACC-62 melanoma were 71.6 µM and 85.4 µM, respectively. Besides, the TGI in the assay on 786-0 renal, in the assay with ACHN renal, in the assay with K-562 leukemia, with NCI-H23 lung, in the assay on PC-3 prostate and in the assay with RXF 393 renal was more than 100 µM throughout. The TGI in the assay on SN12C renal and in the assay with UACC-62 melanoma was more than 100 µM each time.
Consider `O=C1CN=C(C[N+](=O)[O-])c2ccccc21`, for which the TGI in the assay with 786-0 renal, in the assay on ACHN renal, with K-562 leukemia, with NCI-H23 lung, with SK-OV-3 ovarian and in the assay on SN12C renal was more than 100 µM in each case. This molecule also registered a TGI with SR leukemia of more than 100 µM.
